In data set [1] the test system is human SHP-77 SCLC cells as xenograft. Kind of data set: Inhibition of tumor growth, SHP-77 xenograft in NCr-nu mice. The data set is classed as in vivo. The conditions noted are these: for maximum number of tumours versus control, saline-treated mice / mean tumour size versus saline-treated mice: SHP-77 xenografts; for maximum number of tumours versus control, saline-treated mice: FIG. 6, not subject to analysis of significance; for mean tumour size versus saline-treated mice: i.p. treatment up to 38 days, p<0.05; for mean tumor volume: SHP-77 small cell lung cancer xenografts, saline control 260±33 mm^3. The protocol:
SHP-77 SCLC cells were grown in culture and injected into each flank of NCr-nu mice (T cell-deficient immunocompromised mice, suitable for growth of this cell line) (2×10^6 cells per injection, in Matrigel™). One day after injection of tumour cells, groups of 5 mice each were injected with 3 mg/kg of COTI-2MO5 or COTI-4MO5 (i.p.), once every 2 days, up to 38 days. Tumour size was estimated at 5, 10, 17, 24, and 38 days, by external caliper measurement. Animals were humanely euthanized after the 38 day tumour measurement.
For comparison, mice (5 mice per group, injected as described above with SHP-77 human tumor cells as described above) and harbouring SHP-77 xenografts were treated with Taxol® (12.5 mg/kg, i.p. in 0.5 ml isotonic saline) every 2 days (according to the report of J. Riondel et al., Anticancer Res. 8:387-90, 1988) or with cisplatin (3.0 mg/kg of DDP i.p., once per week for four weeks, in isotonic saline, according to the report of P. A. Andrews et al., Cancer Commun. 2:93-100, 1990). Tumour size was estimated at 5, 10, 17, 24, and 38 days, by external caliper measurement. Animals were humanely euthanized after the 38 day tumour measurement.

Data set [2] deals with DMS-114 human SCLC cell line. The data set can be described thus: In vitro tumor cell growth inhibition, cell count after 3 days. The data set is classed as cell-based. How it is done: (§1) Cells were counted after 3 days in culture and at a cell density of no more than 80%.
(§2) In vitro inhibition of small cell lung cancer (SCLC) cell lines by the compound of formula 1A was done with standard human tumor cells (established cell lines available from the American Type Tissue culture collection). […] Cells were counted after 3 days in culture and at a cell density of no more than 80%.
(§3) Briefly, cells were plated in plastic tissue culture plates and grown under standard conditions for each cell line, in carbon dioxide/oxygen atmosphere in plastic tissue culture plates, in the presence of COTI-4 or COTI-4A compounds at 35° C. for 3 days. Control cultures were treated with vehicle minus compound. Cells were counted after 3 days in culture and at a cell density of no more than 80%. The following cell lines, obtained from the National Cancer Institute, were tested: human SCLC cell lines DMS 153, DMS114, SHP77; human NSCLC cell lines H226, A460, A549; human breast cancer cell lines T47D, MCF7; human colon cancer cell line HT29; and, human Leukemia cell lines K562, HL60.

The test system of data set [3] is DMS-153 human SCLC cell line. Described as above. The following applies: for IC50: DMS-153 SCLC cells, 3 days, 35° C. The data set is classed as cell-based. How it is done: as §1, §2, §3
Data set [4] has as its system SHP-77 human SCLC cell line. Described as above. The data set is classed as cell-based. The following applies: for IC50: Homo sapiens. The protocol: as §1, §2, §3
Data set [5] has as its system A460 large cell carcinoma-derived cells (NSCLC; also printed H460). The description is as above. Format: cell-based. The following applies: Homo sapiens. How it is done: (§4) In vitro inhibition of non-small cell lung cancer (NSCLC) cell lines by the compound of Formula 1B (COTI-4) was evaluated. […] Cells were counted after 3 days in culture and at a cell density of no more than 80%.
(§5) In vitro inhibition of non-small cell lung cancer (NSCLC) cell lines by the compound of Formula 1A is evaluated. […] Cells are counted after 3 days in culture and at a cell density of no more than 80%.
as §3

Data set [6] deals with A549 adenocarcinoma-derived cells (NSCLC). The description is as above. Format: cell-based. The following applies: Homo sapiens. How it is done: as §4, §5, §3
The subject of data set [7] is H226 squamous cell carcinoma-derived cells (NSCLC). Described as above. Format: cell-based. The conditions noted are these: Homo sapiens. How it is done: as §4, §5, §3
The test system of data set [8] is human small cell lung cancer cell lines (DMS-114, DMS-153, SHP-77). Kind of data set: In vitro inhibition of SCLC cell lines, summary statements. The data set is classed as cell-based.
Text: as §1, §2

In data set [9] the test system is human non-small cell lung cancer cell lines (A549, H226, A460). The data set can be described thus: In vitro inhibition of NSCLC cell lines, summary statements. The data set is classed as cell-based. The following applies: across NSCLC cell lines, read-out: IC50 values, inhibits growth and/or kills NSCLC cells. How it is done:
(§6) In vitro inhibition of non-small cell lung cancer (NSCLC) cell lines by the compound of Formula 1B (COTI-4) was evaluated. Standard numbers of human tumor cells (established cell lines available from the American Type Tissue culture collection) were plated in plastic tissue culture plates and grown under standard conditions for each cell line, in carbon dioxide/oxygen atmosphere in plastic tissue culture plates, in the presence of COTI-4 (0-1 mM) or Gleevec® ([…]) at 35° C. for 3 days. Control cultures were treated with vehicle minus compound or Gleevec®. Cells were counted after 3 days in culture and at a cell density of no more than 80%.
as §6, with “Formula 1A is” for “Formula 1B (COTI-4) was”, “of compounds of formula 1A” for “of COTI-4”, “cultures are” for “cultures were”, “Cells are” for “Cells were”

Data set [10] concerns HL60 human Leukemia cell line. The data set can be described thus: In vitro IC50 against cancer cell lines. The data set is classed as cell-based. The conditions noted are these: HL-60, 72 h, HL60 leukemia cells, 3 days, 35° C. How it is done: (§7) Briefly, cells were plated in plastic tissue culture plates and grown under standard conditions for each cell line, in carbon dioxide/oxygen atmosphere in plastic tissue culture plates, in the presence of COTI-4 or COTI-4A compounds at 35° C. for 3 days. Control cultures were treated with vehicle minus compound. Cells were counted after 3 days in culture and at a cell density of no more than 80%.

Data set [11] deals with HT29 human colon cancer cell line. Kind of data set: In vitro IC50 against cancer cell lines. The data set is classed as cell-based. The conditions noted are these: HT-29, 72 h, HT29 colorectal cancer cells, 3 days, 35° C. The protocol: as §7
The subject of data set [12] is K562 human Leukemia cell line. Kind of data set: In vitro IC50 against cancer cell lines. The data set is classed as cell-based. The conditions noted are these: 72 h, K562 leukemia cells, 3 days, 35° C. The protocol:
as §7

Data set [13] concerns MCF7 human breast cancer cell line. The data set can be described thus: In vitro IC50 against cancer cell lines. The conditions noted are these: 72 h, MCF7 breast cancer cells, 3 days, 35° C. Format: cell-based. The protocol:
as §7

The test system of data set [14] is T47D human breast cancer cell line. The data set can be described thus: In vitro IC50 against cancer cell lines. The data set is classed as cell-based. The following applies: 72 h, T47D breast cancer cells, 3 days, 35° C. The protocol:
as §7

Data set [15] in a line: Escalating dose acute toxicity study in mice. The data set is classed as in vivo. The following applies: mice, 4, 8, 16 mg/kg, alternate day IP injections for 28 days. How it is done:
An escalating dose acute toxicity study was conducted with COTI-2, COTI-4 (Formula 1B) and COTI-219. Standard lab mice were divided into four treatment groups (control, 4, 8, 16 mg/kg) with four animals per group. It should be noted that the highest dose was approximately 10 times the estimated effective dose. Mice were given alternate day IP injections for 28 days.

Setting [16] is: Homo sapiens, DMS-114, actual in-vitro data, logarithm of IC50, negative, read-out: DMS114 (Log IC50) (converted).
[17] abbreviates: SHP77, 72 h, SHP-77 SCLC cells, 3 days, 35° C., read-out: IC50.
Setting [18] is: SHP77, actual in-vitro data, logarithm of IC50, negative, read-out: SHP-77 (Log IC50) (converted).
The mark [19] stands for this setting: NCI-H460, 72 h, A460 NSCLC cells, 3 days, 35° C., read-out: IC50.
The mark [20] stands for this setting: NCI-H460, actual in-vitro data, logarithm of IC50, negative, read-out: H460 (Log IC50) (converted).
[21] abbreviates: 72 h, A549 NSCLC cells, 3 days, 35° C., read-out: IC50.
Where [22] appears, read: A549, actual in-vitro data, logarithm of IC50, negative, read-out: A549 (Log IC50) (converted).
The mark [23] stands for this setting: NCI-H226, 72 h, H226 NSCLC cells, 3 days, 35° C., read-out: IC50.
Where [24] appears, read: NCI-H226, actual in-vitro data, logarithm of IC50, negative, read-out: H226 (Log IC50) (converted).

The structures appear in SMILES notation. Read-outs that look alike come from different tables or passages of the source.

As for `S=C(N/N=C1/CCCc2cccnc21)N1CCN(c2ccccn2)CC1` [COTI-2], in [1], the “maximum number of tumours versus control, saline-treated mice” value (shortened to “maximum number of tumours versus control”) is on record as “lower than that in control” and the “mean tumour size versus saline-treated mice” value is recorded as “significantly lower”.

Take `CN1CCN(C(=S)NN=C2c3ncccc3-c3cccnc32)CC1` [COTI-219]: in [1], the “maximum number of tumours versus control” value was “lower than that in control”.

The molecule `CN1CCN(C(=S)NN=C(c2ccccc2)c2ccnnc2)CC1` [Formula 1A, 4-methyl-N′-[phenyl(pyridazin-4-yl)methylidene]piperazine-1-carbothiohydrazide] showed a melting point of 141 to 143 °C. Also, in data set [2] (DMS-114), the “times more effective in vitro than Gleevec®” value is reported as “about 100”. Also, in data set [2] (DMS-114 SCLC cells, 3 days, 35° C., listed as COTI-4A, read-out: IC50), the IC50 stood at 650 nM. Besides, the IC50 in data set [2] (Homo sapiens, DMS-114, 72 h, DMS-114 SCLC cells, 3 days, 35° C., read-out: IC50) was below 1000 nM. Further, the IC50 in data set [2] (setting [16]) is 650 nM. In [3] (DMS-153), the “times more effective in vitro than Gleevec®” value is recorded as “about 100”. In data set [4] (setting [17]), the IC50 was 10000 nM. Also, the IC50 in [4] (setting [18]) was 10700 nM. For the same molecule, the “effectiveness relative to Gleevec®” value in data set [4] (SHP-77) is listed as “about twice as effective”. For the same molecule, the IC50 in data set [5] (setting [19]) is 100000 nM. The IC50 in data set [5] (setting [20]) was 72400 nM. Further, the IC50 in data set [6] (setting [21]) is 1500 nM. The IC50 in data set [6] (setting [22]) was 1570 nM. The IC50 in [7] (setting [23]) stood at 90000 nM. In data set [7] (setting [24]), the IC50 was 63500 nM. For the same molecule, the IC50 in [8] (Homo sapiens, across SCLC cell lines, depending on cell line tested, read-out: IC50 values, inhibits growth and/or kills SCLC cells) is at least 650 nM. For the same molecule, the IC50 in [9] was at least 1500 nM.

Regarding `CN1CCN(C(=S)NN=C(c2ccccn2)c2ccccn2)CC1` [Formula 1B, N′-(dipyridin-2-ylmethylidene)-4-methylpiperazine-1-carbothiohydrazide], the IC50 in [2] (DMS-114 SCLC cells, 3 days, 35° C., listed as COTI-4 (1B), read-out: IC50) was 30 nM; in [2] (DMS-114 SCLC cells, 3 days, 35° C., listed as COTI-4M05, read-out: IC50), 30 nM; in data set [2] (setting [16]), 30 nM; in data set [3] (listed as COTI-4 (1B)), 130 nM; in [3] (listed as COTI-4M05) it was 130 nM; in [4] (setting [17]), 173 nM. Besides, the IC50 in data set [4] (setting [18]) was 173 nM; in [5] (setting [19]), 5100 nM; in data set [5] (setting [20]), 5110 nM; in data set [6] (setting [21]), 6800 nM; in data set [6] (setting [22]) it was 6810 nM; in data set [7] (setting [23]) it was 2500 nM. The IC50 in data set [7] (setting [24]) is 2500 nM; in [10] it was 318 nM; in data set [11] it was 83 nM; in data set [12] it was 95 nM; in data set [13], 291 nM; in [14], 224 nM. Further, the IC50 in data set [9] is at least 2500 nM. In addition, in [8] (3 human small cell lung cancer cell lines), the “times more effective than Gleevec® against these cell lines in vitro” value was “over 100”. For the same molecule, the mean tumor volume in data set [1] worked out at 6.2 mm^3. For the same molecule, the “maximum number of tumours versus control” value in [1] is on record as “lower than that in control”. The “mean tumour size versus saline-treated mice” value in data set [1] is on record as “significantly lower”. The “acute toxicity / adverse events” value in data set [15] was “safe and non-toxic at all dosage levels”.

As for `CC(=O)O[C@H]1C(=O)[C@@]2(C)[C@H]([C@H](OC(=O)c3ccccc3)[C@]3(O)C[C@H](OC(=O)[C@H](O)[C@@H](NC(=O)c4ccccc4)c4ccccc4)C(C)=C1C3(C)C)[C@]1(OC(C)=O)CO[C@@H]1C[C@@H]2O` [Taxol®, paclitaxel], in data set [1], the mean tumor volume was 183 mm^3; the “maximum number of tumours versus control” value is listed as “lower than that in control”; the “mean tumour size versus saline-treated mice” value is on record as “significantly lower”.

For `N.N.[Cl][Pt][Cl]` [cisplatin], in data set [1], the mean tumor volume is given as 132±26 mm^3; the “maximum number of tumours versus control” value is recorded as “lower than that in control”; the “mean tumour size versus saline-treated mice” value was “significantly lower”.

One may read the melting point as the temperature, or range, at which the solid turns liquid.
